Results: paper doi:10.1101/158956v2 (biorxiv, 2017)

Columns and labels:
EcFumA = biological target: T1, EcFumA (Escherichia coli, UniProt P0AC33); assay: spectrophotometric initial velocity; format: biochemical
T1 sequence (P0AC33 2-548): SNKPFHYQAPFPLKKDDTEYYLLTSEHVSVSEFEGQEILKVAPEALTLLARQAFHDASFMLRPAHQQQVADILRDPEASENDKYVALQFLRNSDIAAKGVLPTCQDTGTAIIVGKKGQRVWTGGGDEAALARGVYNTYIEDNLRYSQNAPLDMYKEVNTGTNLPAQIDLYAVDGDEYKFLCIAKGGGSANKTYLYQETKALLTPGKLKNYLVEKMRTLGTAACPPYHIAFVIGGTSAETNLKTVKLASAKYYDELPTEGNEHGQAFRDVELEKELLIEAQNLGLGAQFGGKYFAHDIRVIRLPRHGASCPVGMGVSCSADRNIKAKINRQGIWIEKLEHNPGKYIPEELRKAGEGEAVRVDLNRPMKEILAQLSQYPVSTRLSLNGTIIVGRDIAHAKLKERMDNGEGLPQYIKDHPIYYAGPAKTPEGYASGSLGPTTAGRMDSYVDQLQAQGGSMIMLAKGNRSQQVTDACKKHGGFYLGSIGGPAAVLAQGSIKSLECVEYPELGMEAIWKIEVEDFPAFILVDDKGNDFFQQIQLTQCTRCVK

PfFHΔ40 (PfFΔ40) [1] = biological target: T2, PfFHΔ40 (PfFΔ40) (Plasmodium falciparum, UniProt Q8I2N6); assay: spectrophotometric initial velocity, global fit to competitive model; format: biochemical
T2 sequence (Q8I2N6 41-681): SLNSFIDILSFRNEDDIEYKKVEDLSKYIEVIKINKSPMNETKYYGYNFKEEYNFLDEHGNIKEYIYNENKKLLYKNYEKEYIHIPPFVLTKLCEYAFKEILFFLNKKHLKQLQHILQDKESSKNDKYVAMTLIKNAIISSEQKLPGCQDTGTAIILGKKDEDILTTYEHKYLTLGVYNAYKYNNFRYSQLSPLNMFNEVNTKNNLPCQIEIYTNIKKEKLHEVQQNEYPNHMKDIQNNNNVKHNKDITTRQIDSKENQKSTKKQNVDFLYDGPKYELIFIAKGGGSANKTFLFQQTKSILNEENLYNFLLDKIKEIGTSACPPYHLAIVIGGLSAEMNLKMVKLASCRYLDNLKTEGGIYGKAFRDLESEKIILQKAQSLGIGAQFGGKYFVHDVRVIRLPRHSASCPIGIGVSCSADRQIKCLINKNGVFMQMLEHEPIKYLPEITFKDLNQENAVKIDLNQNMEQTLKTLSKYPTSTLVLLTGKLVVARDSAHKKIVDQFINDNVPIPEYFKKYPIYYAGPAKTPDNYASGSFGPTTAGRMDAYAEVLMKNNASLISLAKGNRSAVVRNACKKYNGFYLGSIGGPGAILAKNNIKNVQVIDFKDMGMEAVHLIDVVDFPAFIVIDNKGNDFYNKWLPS

PfFHΔ40 (PfFΔ40) [2] = biological target: T2, PfFHΔ40 (PfFΔ40); assay: spectrophotometric initial velocity, Michaelis-Menten fit; conditions: 50 mM Tris-HCl pH 8.5, 37 °C
EcFumC = biological target: T3, EcFumC (Escherichia coli, UniProt P05042); assay: spectrophotometric initial velocity; format: biochemical
T3 sequence (P05042 1-467): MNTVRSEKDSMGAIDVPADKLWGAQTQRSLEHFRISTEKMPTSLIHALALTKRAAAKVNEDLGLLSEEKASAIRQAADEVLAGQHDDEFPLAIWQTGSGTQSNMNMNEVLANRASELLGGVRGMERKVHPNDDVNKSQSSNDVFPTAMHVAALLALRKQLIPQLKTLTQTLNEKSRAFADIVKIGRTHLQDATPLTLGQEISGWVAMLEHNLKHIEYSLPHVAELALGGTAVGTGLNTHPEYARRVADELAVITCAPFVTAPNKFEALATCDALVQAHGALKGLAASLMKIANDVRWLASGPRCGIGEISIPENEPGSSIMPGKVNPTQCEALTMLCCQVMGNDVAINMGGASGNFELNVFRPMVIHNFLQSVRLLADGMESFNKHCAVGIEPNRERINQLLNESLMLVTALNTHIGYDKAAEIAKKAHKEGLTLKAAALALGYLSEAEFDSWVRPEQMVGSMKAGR

PfFHΔ40 (PfFΔ40) [3] = biological target: T2, PfFHΔ40 (PfFΔ40); assay: spectrophotometric initial velocity; format: biochemical
purified protein [4] = substrate: C/C(=C\C(=O)O)C(=O)O; assay: purified protein; conditions: 50 mM Tris-HCl pH 8.5, 37 °C
purified protein [5] = substrate: O=C(O)C[C@H](O)C(=O)O; assay: purified protein; conditions: 50 mM Tris-HCl pH 8.5, 37 °C

Molecule: O=C(O)CC(S)C(=O)O (racemic) [DL-mercaptosuccinic acid]
- Ki (EcFumA): 2.9 ± 0.22 µM
- Ki (PfFHΔ40 (PfFΔ40) [1]): 548 ± 46 nM

Molecule: O=C(O)/C=C/C(=O)O [fumarate]
- Km (PfFHΔ40 (PfFΔ40) [2]): 2.6 ± 0.3 mM

Molecule: O=C(O)C(O)C(O)C(=O)O (stereo not drawn) [meso-tartrate]
- Ki (EcFumA): 625 µM
- Ki (EcFumC): 652 µM
- Ki (PfFHΔ40 (PfFΔ40) [3]): 114 ± 17 µM

B1: PfFHΔ40 (PfFΔ40) (Plasmodium falciparum 3D7) (protein)
chain: T2 sequence (Q8I2N6 41-681)
- Km (purified protein [4]): 3.2 ± 0.3 mM
- Km (purified protein [5]): 1.2 ± 0.1 mM
